Consider two compounds from US5837862A, “Sialyl Lewis X mimetics incorporating mannopeptides” (The Scripps Research Institute, priority 1996, dated 1998).

Data set [1] addresses T1, E-selectin (Homo sapiens, UniProt P16581).
T1 sequence (P16581 22-610): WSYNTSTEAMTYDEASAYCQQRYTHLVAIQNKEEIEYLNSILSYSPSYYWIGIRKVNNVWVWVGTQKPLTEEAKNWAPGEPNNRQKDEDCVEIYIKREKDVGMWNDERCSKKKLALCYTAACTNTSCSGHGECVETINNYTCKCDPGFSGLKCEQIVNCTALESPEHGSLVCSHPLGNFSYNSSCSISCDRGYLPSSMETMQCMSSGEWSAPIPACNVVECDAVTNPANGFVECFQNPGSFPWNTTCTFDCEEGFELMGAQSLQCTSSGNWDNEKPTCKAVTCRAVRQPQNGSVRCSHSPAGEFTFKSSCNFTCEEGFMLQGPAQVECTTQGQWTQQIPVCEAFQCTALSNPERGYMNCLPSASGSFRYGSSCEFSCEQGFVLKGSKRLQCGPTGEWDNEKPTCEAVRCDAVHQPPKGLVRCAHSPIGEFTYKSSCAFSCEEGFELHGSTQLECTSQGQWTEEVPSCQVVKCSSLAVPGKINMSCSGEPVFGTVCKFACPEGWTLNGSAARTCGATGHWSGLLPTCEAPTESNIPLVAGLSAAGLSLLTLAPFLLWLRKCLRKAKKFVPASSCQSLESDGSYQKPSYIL
As to the kind of experiment: E-selectin inhibition assay (Weitz-Schmidt et al.). Type of data set: binding.

For data set [2], the target named is T2, P-selectin (Homo sapiens, UniProt P16109).
T2 sequence (P16109 42-830): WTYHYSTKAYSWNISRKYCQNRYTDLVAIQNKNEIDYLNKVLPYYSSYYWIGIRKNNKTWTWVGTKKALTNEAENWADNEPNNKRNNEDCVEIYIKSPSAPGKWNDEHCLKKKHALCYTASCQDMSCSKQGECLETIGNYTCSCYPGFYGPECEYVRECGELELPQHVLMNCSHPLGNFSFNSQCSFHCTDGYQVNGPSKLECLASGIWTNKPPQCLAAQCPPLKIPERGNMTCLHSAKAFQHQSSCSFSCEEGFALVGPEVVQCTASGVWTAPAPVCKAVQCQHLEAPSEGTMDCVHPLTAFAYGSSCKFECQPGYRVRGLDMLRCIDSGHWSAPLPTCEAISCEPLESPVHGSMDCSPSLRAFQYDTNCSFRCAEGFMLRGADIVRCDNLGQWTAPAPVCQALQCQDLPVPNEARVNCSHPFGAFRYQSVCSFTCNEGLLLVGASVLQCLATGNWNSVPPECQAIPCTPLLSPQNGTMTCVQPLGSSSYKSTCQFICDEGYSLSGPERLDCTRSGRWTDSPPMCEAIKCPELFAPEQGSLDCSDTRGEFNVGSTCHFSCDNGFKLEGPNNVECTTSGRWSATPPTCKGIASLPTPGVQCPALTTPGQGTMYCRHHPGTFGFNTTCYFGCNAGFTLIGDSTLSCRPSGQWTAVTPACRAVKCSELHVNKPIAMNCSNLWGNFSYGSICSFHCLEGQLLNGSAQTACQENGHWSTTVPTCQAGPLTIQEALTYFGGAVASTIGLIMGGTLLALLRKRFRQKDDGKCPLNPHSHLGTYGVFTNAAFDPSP
Description: P-selectin inhibition assay. Type of data set: binding. The conditions noted are these: at 3 mM.

Data set [3] concerns the target T3, L-selectin (Homo sapiens, UniProt P14151).
T3 sequence (P14151 39-372): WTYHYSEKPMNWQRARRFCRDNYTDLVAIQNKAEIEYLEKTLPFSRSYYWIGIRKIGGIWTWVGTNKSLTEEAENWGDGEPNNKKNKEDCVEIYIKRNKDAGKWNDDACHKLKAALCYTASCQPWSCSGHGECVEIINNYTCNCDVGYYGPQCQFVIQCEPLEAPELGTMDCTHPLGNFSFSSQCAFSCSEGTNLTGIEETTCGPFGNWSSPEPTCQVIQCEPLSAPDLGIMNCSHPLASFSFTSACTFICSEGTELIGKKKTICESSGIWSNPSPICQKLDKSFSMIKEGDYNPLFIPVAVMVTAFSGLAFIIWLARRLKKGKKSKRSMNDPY
As to the kind of experiment: L-selectin inhibition assay. Particulars: at 3 mM. Type of data set: binding.

For data set [4], the system named is lung injury in rats. The conditions noted are these: cited from earlier work.
The conditions of data set [5]: in vivo; cited from earlier work.
Data set [6] concerns glycosidase. Particulars: because of glycosidase reductions; cited from earlier work.

As for `O=C(O)CNC(=O)[C@@H](O)[C@H](O)C[C@H]1O[C@H](CO)[C@@H](O)[C@H](O)[C@@H]1O` [Mimetic 5, (2S,3R)-N-Carboxylmethyl-2,3-dihydroxy-4-(α-D -mannopyranosyl)-butyramide], the 50% inhibitory concentration (IC50) in data set [1] was 160 µM. For the same compound, in data set [1] (versus SLex), the “activity relative to SLex” value turned out to be 3 fold. Besides, the “inhibition of P-selectin” value in data set [2] is reported as “does not inhibit”. Also, the “inhibition of L-selectin” value in data set [3] is “does not inhibit”.
In the case of NeuAcα2→3Galβ1→4(Fucα1→3)GlcNAc [SLex], the effective intravenous concentration entry in data set [4] (rat, intravenous infusion of up to 200 μg, calculated) is “less than 1 μM”. In addition, the “effect on lung injury” value in data set [4] (rat, intravenous infusion of up to 200 μg, cobra venom) is listed as “dramatically reduced lung injury”. Besides, in data set [4] (rats, read-out: IC50 value in vivo for protecting against lung injury), the 50% inhibitory concentration (IC50) was roughly 1 µM. For the same compound, in data set [5], the oral activity entry is “orally inactive”. The “stability in the blood stream” value in data set [6] was “unstable in the blood stream”.
